Reference: patent US11098018B2, “Potassium channel inhibitors” (ACESION PHARMA ApS, priority 2017, dated 2021)

Biological target: T1, human SK3 channel (hKCa0.2.3) (Homo sapiens, UniProt Q9UGI6)
T1 construct: expressed in transfected cells
Assay: Automated patch clamping (QPatch whole-cell)
Format: cell-based
Conditions: HEK-293 cells stably expressing human SK3; free calcium 400 nM; normalized to inhibitory effect of N-methyl bicuculline
Description: Automated whole cell patch-clamp recordings were performed using a QPatch 16 HT system and single-hole Qplates (Biolin Scientific, Sophion, Denmark) on HEK-293 cells stably expressing the human SK3 channel (hKCa0.2.3). Cells were cultured and prepared for experiments using normal cell culturing procedures. A total of 4-5 million cells were used per experiment. The Qpatch automatically generates giga sealing, whole-cell formation, compound application and recording of current. hKCa2.3 currents were recorded in symmetrical K^+ solutions, with an intracellular solution consisting of in mM: KCl 108; KOH/EGTA (ethylene glycol-bis(2-aminoethylether)-N,N,N′,N′-tetraacetic acid) 31.25/10; CaCl2) 8.1; MgCl2 1.2; HEPES (2-[4-(2-hydroxyethyl)piperazin-1-yl]ethanesulfonic acid) 10; KOH 15, pH adjusted to pH=7.2 with HCl. The free calcium concentration was calculated to 400 nM. The extracellular solution consisted of in mM: KCl 150; CaCl2) 0.1; MgCl2 3; HEPES 10; Glucose 10, pH=7.4 with KOH. The cells were held at 0 mV and hKCa0.2.3 currents were elicited by a linear voltage ramp from −80 mV to +80 mV (200 ms in duration) applied every 5th second. The compound application protocol consisted of 12 recording periods lasting from 50-200 s: 1) Baseline recordings in extracellular solution; 2) Application of the positive control N-methyl bicuculline (100 μM), which is characterized by full efficacy, fast on- and off-rate; 3-4) Wash-out; 5-9) Increasing concentrations of test compound to establish an IC50 value; 10-11) Wash-out; 12) positive control with compound NS8593 (N-[(1R)-1,2,3,4-tetrahydro-1-naphthalenyl]-1H-benzimidazol-2-amine) (1 μM). Data were sampled at 10 kHz, 4th order Bessel filter, cut-off frequency 3 kHz. Currents were compensated for run-down. Potency was quantified as the concentration needed to inhibit half of the SK channel activity and reported as an IC50 value. All effects of compounds of the present invention as tested were normalized to the observed inhibitory effect of N-methyl bicuculline.

Structure (SMILES) | IC50
CC(C)CNC(=O)C(Nc1nc2ccccc2[nH]1)c1cccc(C(F)(F)F)c1 (centres unmarked) [Example 15, 2-[(1H-1,3-benzodiazol-2-yl)amino]-N-(2-methylpropyl)-2-[3-(trifluoromethyl)phenyl]acetamide] | < 10 µM
CNC(=O)CC(Nc1nc2ccccc2[nH]1)c1cc(C)c(F)c(C)c1 (centres unmarked) [Example 9, 3-[(1H-1,3-benzodiazol-2-yl)amino]-3-(4-fluoro-3,5-dimethylphenyl)-N-methylpropanamide] | < 10 µM
CNC(=O)CC(Nc1nc2c(C)c(F)ccc2[nH]1)c1cccc(C(F)(F)F)c1 (centres unmarked) [Example 4, 3-[(5-fluoro-4-methyl-1H-1,3-benzodiazol-2-yl)amino]-N-methyl-3-[3-(trifluoromethyl)phenyl]propanamide] | < 10 µM
COC(=O)C(Cc1cccc(C(F)(F)F)c1)Nc1nc2c(NC(C)=O)cccc2[nH]1 (centres unmarked) [Example 7, methyl 2-[(4-acetamido-1H-1,3-benzodiazol-2-yl)amino]-3-[3-(trifluoromethyl)phenyl]propanoate] | < 10 µM
Cc1c(F)ccc2[nH]c(NC(CC(N)=O)c3cccc(C(F)(F)F)c3)nc12 (centres unmarked) [Example 14, 3-[(5-fluoro-4-methyl-1H-1,3-benzodiazol-2-yl)amino]-3-[3-(trifluoromethyl)phenyl]propanamide] | < 10 µM
CN(C)C(=O)C(Nc1nc2ccccc2[nH]1)c1cccc(C(F)(F)F)c1 (single isomer, unassigned; (-)) [Example 1a, (−)2-[(1H-1,3-benzodiazol-2-yl)amino]-N,N-dimethyl-2-[3-(trifluoromethyl)phenyl]acetamide] | < 10 µM
CNC(=O)CC(Nc1nc2ccccc2[nH]1)c1cccc(C(=O)OC)c1 (centres unmarked) [Example 24, methyl 3-{1-[(1H-1,3-benzodiazol-2-yl)amino]-2-(methylcarbamoyl)ethyl}benzoate] | < 10 µM
O=C(NC1CC1)C(Nc1nc2ccccc2[nH]1)c1cccc(C(F)(F)F)c1 (centres unmarked) [Example 16, 2-[(1H-1,3-benzodiazol-2-yl)amino]-N-cyclopropyl-2-[3-(trifluoromethyl)phenyl]acetamide] | < 10 µM
CNC(=O)CC(Nc1nc2ccccc2[nH]1)c1ccc(Cl)c(Cl)c1 (centres unmarked) [Example 22, 3-[(1H-1,3-benzodiazol-2-yl)amino]-3-(3,4-dichlorophenyl)-N-methylpropanamide] | < 10 µM
CNC(=O)CC(Nc1nc2ccccc2[nH]1)c1ccc(Cl)c(C)c1 (centres unmarked) [Example 10, 3-[(1H-1,3-benzodiazol-2-yl)amino]-3-(4-chloro-3-methylphenyl)-N-methylpropanamide] | < 10 µM
CNC(=O)CC(Nc1nc2c(CO)cccc2[nH]1)c1cccc(SC(F)(F)F)c1 (centres unmarked) [Example 21, 3-{[4-(hydroxymethyl)-1H-1,3-benzodiazol-2-yl]amino}-N-methyl-3-{3-[(trifluoromethyl)sulfanyl]phenyl}propanamide] | < 10 µM
CNC(=O)CC(Nc1nc2cc(OC(F)(F)F)ccc2[nH]1)c1cccc(C(F)(F)F)c1 (centres unmarked) [Example 18, N-methyl-3-{[5-(trifluoromethoxy)-1H-1,3-benzodiazol-2-yl]amino}-3-[3-(trifluoromethyl)phenyl]propanamide; trifluoroacetic acid] | < 10 µM
CNC(=O)CC(Nc1nc2c(CCO)cccc2[nH]1)c1cccc(C(F)(F)F)c1 (centres unmarked) [Example 6, 3-{[4-(2-hydroxyethyl)-1H-1,3-benzodiazol-2-yl]amino}-N-methyl-3-[3-(trifluoromethyl)phenyl]propanamide] | < 100 µM
CNC(=O)CC(Nc1nc2c(COC)cccc2[nH]1)c1cccc(C(F)(F)F)c1 (centres unmarked) [Example 19, 3-{[4-(methoxymethyl)-1H-1,3-benzodiazol-2-yl]amino}-N-methyl-3-[3-(trifluoromethyl)phenyl]propanamide] | < 10 µM
CN(C)C(=O)C(Nc1nc2ccccc2[nH]1)c1cccc(C(F)(F)F)c1 (centres unmarked) [Example 1, 2-[(1H-1,3-benzodiazol-2-yl)amino]-N,N-dimethyl-2-[3-(trifluoromethyl)phenyl]acetamide] | < 10 µM
CNC(=O)C(C)(Nc1nc2ccccc2[nH]1)c1cccc(C(F)(F)F)c1 (centres unmarked) [Example 26, 2-[(1H-1,3-benzodiazol-2-yl)amino]-N-methyl-2-[3-(trifluoromethyl)phenyl]propanamide; trifluoroacetic acid] | < 10 µM
CNC(=O)C(C)(Nc1nc2ccccc2[nH]1)c1cccc(C(F)(F)F)c1 (single isomer, unassigned; (+)) [Example 26a, (+)-2-[(1H-1,3-benzodiazol-2-yl)amino]-N-methyl-2-[3-(trifluoromethyl)phenyl]propanamide] | < 10 µM

Second part, the compound after the results:

IC50 | Structure (SMILES)
< 10 µM | CNC(=O)CC(Nc1nc2ccccc2[nH]1)c1cccc(C(F)(F)F)c1 (centres unmarked) [Example 2, 3-[(1H-1,3-benzodiazol-2-yl)amino]-N-methyl-3-[3(trifluoromethyl)phenyl]propanamide]
< 10 µM | CNC(=O)CCC(Nc1nc2ccccc2[nH]1)c1cccc(C(F)(F)F)c1 (centres unmarked) [Example 25, 4-[(1H-1,3-benzodiazol-2-yl)amino]-N-methyl-4-[3-(trifluoromethyl)phenyl]butanamide]
< 10 µM | CNC(=O)CC(Nc1nc2ccccc2[nH]1)c1cccc(OC(F)(F)F)c1 (centres unmarked) [Example 13, 3-[(1H-1,3-benzodiazol-2-yl)amino]-N-methyl-3-[3-(trifluoromethoxy)phenyl]propanamide]
< 10 µM | C=CCNC(=O)CC(Nc1nc2ccccc2[nH]1)c1cccc(C(F)(F)F)c1 (centres unmarked) [Example 3, 3-[(1H-1,3-benzodiazol-2-yl)amino]-N-(prop-2-en-1-yl)-3-[3-(trifluoromethyl)phenyl]propanamide]
< 10 µM | CNC(=O)CCC(Nc1nc2ccccc2[nH]1)c1cccc(C(F)(F)F)c1 (single isomer, unassigned; (-)) [Example 25a, (−)-4-[(1H-1,3-benzodiazol-2-yl)amino]-N-methyl-4-[3-(trifluoromethyl)phenyl]butanamide]
< 10 µM | CON(C)C(=O)CC(Nc1nc2ccccc2[nH]1)c1cccc(C(F)(F)F)c1 (centres unmarked) [Example 11, 3-[(1H-1,3-benzodiazol-2-yl)amino]-N-methoxy-N-methyl-3-[3-(trifluoromethyl)phenyl]propanamide]
< 10 µM | CNC(=O)CC(Nc1nc2c(C)cccc2[nH]1)c1cccc(C(F)(F)F)c1 (centres unmarked) [Example 5, N-methyl-3-[(4-methyl-1H-1,3-benzodiazol-2-yl)amino]-3-[3-(trifluoromethyl)phenyl]propanamide]
< 10 µM | CNC(=O)CC(Nc1nc2cc(F)ccc2[nH]1)c1cccc(C(F)(F)F)c1 (centres unmarked) [Example 17, 3-[(5-fluoro-1H-1,3-benzodiazol-2-yl)amino]-N-methyl-3-[3-(trifluoromethyl)phenyl]propanamide]
< 10 µM | CNC(=O)CC(Nc1nc2ccccc2[nH]1)c1cccc(SC)c1 (centres unmarked) [Example 12, 3-[(1H-1,3-benzodiazol-2-yl)amino]-N-methyl-3-[3-(methylsulfanyl)phenyl]propanamide]
< 100 µM | CNC(=O)C(Cc1cccc(C(F)(F)F)c1)Nc1nc2ccccc2[nH]1 (centres unmarked) [Example 8, 2-[(1H-1,3-benzodiazol-2-yl)amino]-N-methyl-3-[3-(trifluoromethyl)phenyl]propanamide]
< 10 µM | CNC(=O)CC(Nc1nc2c(Cl)cccc2[nH]1)c1cccc(C(F)(F)F)c1 (centres unmarked) [Example 20, 3-[(4-chloro-1H-1,3-benzodiazol-2-yl)amino]-N-methyl-3-[3-(trifluoromethyl)phenyl]propanamide]
< 10 µM | CNC(=O)CC(Nc1nc2ccccc2[nH]1)c1cccc(C(F)(F)F)c1 (single isomer, unassigned; (-)) [Example 2a, (−)3-[(1H-1,3-benzodiazol-2-yl)amino]-N-methyl-3-[3(trifluoromethyl)phenyl]propanamide]
